Assay results published in patent US20250346871A1, “PRENYLTRANSFERASES AND METHODS OF MAKING AND USE THEREOF” (priority 2020, published 2025).

Assays:
[1] = system: APT73 (SEQ ID NO: 4) variant APT73.13 (S205R, G282R, A283C, S284L; residues 285 onward removed from the C-terminus), SEQ ID NO: 36; assay: Kinetic characterization of purified enzyme with OA and GPP as substrates; type: biochemical; settings: APT73.13, purified enzyme
Method: (§1) In order to compare the enzyme's activities more accurately, larger cultures of the best hits and controls from the first screen were grown and the enzymes were purified according to the following protocol. Glycerol stocks of each recombinant strain were used to inoculate 2 mL of LB with 50 μg/mL kanamycin. […]. The cultures were grown at 37° C. with 250 rpm shaking until an OD600 of approximately 0.8-1. At this point, the cultures were transferred to a shaker at room temperature for 30 min, after which they were induced with 0.25 mM IPTG. After 16 h at 150 rpm shaking, the cells were pelleted by centrifugation
(§2) Cell pellets were resuspended in 10 mL lysis buffer (B-PER with 5 mM MgCl2, 100 μg/mL lysozyme, and 2 μL/mL DNaseI (TURBO DNase ThermoFisher)). After incubation at room temperature for 10 min, the cell debris were removed by centrifugation at 4750 rpm for 10 min at 4° C. Lysates were loaded in pre-equilibrated cobalt spin columns (ThermoFisher, HisPur Cobalt spin column, 1 mL) and tagged proteins were purified according to manufacturer's protocol. The eluted proteins were exchanged into the final buffer (TrisHCl 25 mM, 5 mM MgCl2, 150 mM NaCl 10% v/v glycerol) using Amicon Ultra 15 centrifugal filters (10 kDa MWCO). Proteins can be stored at −20° C. for at least a week.
(§3) Selected mutants from the previous screenings were cloned in E. coli vectors and were purified as described in Example 3.

[2] = system: APT89, aromatic prenyltransferase, wild type, SEQ ID NO: 2 (expressed with His tag: SEQ ID NO: 9, 81); assay: as above; type: biochemical
Method: as §1, §2, §3

[3] = system: APT73 (SEQ ID NO: 4) variant APT73.52 (S205R, S223A, K225H, A260G, Y276E, G282R, A283C, S284L; residues 285 onward removed from the C-terminus), SEQ ID NO: 69; assay: as above; type: biochemical; settings: APT73.52, purified enzyme
Method: as §1, §2, §3

[4] = system: APT73 (SEQ ID NO: 4) variant APT73.47 (A156I, S205R, S223A, K225H, A260G, Y276L, G282R, A283C, S284L; residues 285 onward removed from the C-terminus), SEQ ID …; assay: as above; type: biochemical; settings: APT73.47, purified enzyme
Method: as §1, §2, §3

[5] = system: APT73 (SEQ ID NO: 4) variant APT73.30 (S205R, S223A, K225H, A260G, Y276L, G282R, A283C, S284L; residues 285 onward removed from the C-terminus), SEQ ID NO: 56; assay: as above; type: biochemical; settings: APT73.30, purified enzyme
Method: as §1, §2, §3

[6] = system: NphB, aromatic prenyltransferase from Streptomyces sp. (strain CL190), wild type, Uniprot ID: Q4R2T2, SEQ ID NO: 20; settings: OA and GPP as substrates, from literature (Valliere et al. Nature Commun. 2019, 10, 565); cited from earlier work

Structure (SMILES)	Kcat (CBGA) [1]	Kcat (CBGA) [2]	Kcat (CBGA) [3]	Kcat (CBGA) [4]	Kcat (CBGA) [5]	Km [1]	Km [2]	Km [3]	Km [4]	Km [5]	Km [6]
CCCCCc1cc(O)c(C/C=C(\C)CCC=C(C)C)c(O)c1C(=O)O [CBGA, cannabigerolic acid]	0.049 s⁻¹	0.001 s⁻¹	0.08 s⁻¹	0.175 s⁻¹	0.113 s⁻¹						
CCCCCc1cc(O)cc(O)c1C(=O)O [OA, olivetolic acid]						1100 ± 93 µM	33 ± 4 µM	101 ± 14 µM	205 ± 165 µM	501 ± 88 µM	640 µM
